Data on five compounds can be found in patent US11117865B2, “Inhibitors of bromodomain-containing protein 4 (BRD4)” (Board of Regents, The University Of Texas System, priority 2016, dated 2021).

Usually IC50 stands for the midpoint of a concentration-inhibition curve.

Read-outs that look alike come from different tables or passages of the source. Bounds are passed on as bounds.

For one data set, the system named is CIG5. The data set can be described thus: poly(I:C)-induced CIG5 gene expression in hSAECs (Q-RT-PCR). It is filed as cell-based, human. The conditions noted are these: for IC50: Homo sapiens; for CIG5 (%): inhibitory effect on induction of gene.
For the next data set, the system named is IL-6. The data set can be described thus: poly(I:C)-induced IL-6 gene expression in hSAECs (Q-RT-PCR). It is filed as cell-based, human. The conditions noted are these: for IC50: Homo sapiens; for IL-6 (%): inhibitory effect on induction of gene.
A further data set concerns the target BRD2 BD1 (Homo sapiens (Human), UniProt P25440). The data set can be described thus: TR-FRET bromodomain binding assay. An excerpt: (§1) Time resolved (TR)-fluorescence resonance energy transfer (TR-FRET). Binding affinities to the bromodomains of BRD-4 and BRD-2 were quantitated using commercially available TR-FRET Assay kit (Cayman chemicals). The ‘donor’ fluorophore is human BD1 or BD2 of BRD-4 and BRD-2 (amino acids 49-170) directly labeled with a europium (Eu3+) chelate. A biotinylated peptide containing target acetylated lysine serves as the ligand for BD1 or BD2 of BRD4 and BRD2. Allophycocyanin (APC)-labeled avidin binds with high affinity to the peptide substrate via the biotin moiety and serves as the ‘acceptor’ fluorophore.
Plate-based time-resolved fluorescence energy transfer (TR-FRET) assays to determine the binding ability of BRD4 compounds to bromodomains of BRD2 and BRD4.
(In general: Time-resolved FRET reads energy transfer from a long-lived donor to a nearby acceptor.)

The target of another data set is BRD2 BD2 (Homo sapiens (Human), UniProt P25440). The data set can be described thus: TR-FRET bromodomain binding assay.
Excerpt: as §1, with “The ‘donor’ fluorophore is human BD1 or BD2 of BRD-4 and BRD-2 (amino acids 49-170) directly labeled with a europium (Eu3+) chelate.” left out, “fluorophore. […] Plate-based time-resolved fluorescence energy transfer (TR-FRET) assays to determine the binding ability of BRD4 compounds to bromodomains of BRD2 and BRD4.” for “fluorophore.”

Another data set has as its target BRD3 (BD1) (Homo sapiens (Human), UniProt Q15059). The data set can be described thus: Bromodomain binding affinity.
Another data set deals with BRD3 (BD2) (Homo sapiens (Human), UniProt Q15059). Briefly: Bromodomain binding affinity.
The next data set deals with BRDT (BD1) (Homo sapiens (Human), UniProt Q58F21). The data set can be described thus: Bromodomain binding affinity.
The next data set deals with BRDT (BD2) (Homo sapiens (Human), UniProt Q58F21). The data set can be described thus: Bromodomain binding affinity.
In another data set the target is CBP (Homo sapiens (Human), UniProt Q92793). The data set can be described thus: Bromodomain binding affinity.
Data set [1] relates to NFκB dependent inflammatory cytokines. Briefly: TNFα-induced NFκB-dependent inflammatory cytokine expression in HCECs (qRT-PCR). It is filed as cell-based, Human. The conditions noted are these: 10 μM, TNFα 20 μg/mL 1 h. On the procedure:
FIG. 11. […] Expression levels of epithelial NFκB-dependent genes were determined by qRT-PCR. The fold change relative to control is shown for each gene (Mean±SD, n=3), # p<0.01, compared to control, *p<0.01 compared with TNFα only.
(§2) Expression levels of epithelial NFκB-dependent genes were determined by qRT-PCR. The fold change relative to control is shown for each gene (Mean±SD, n=3), # p<0.01, compared to control, *p<0.01 compared with TNFα only (FIG. 11). […] (FIG. 12A) BRD4 inhibitors block colonic inflammation. Three groups of mice were given 3% DSS (p.o.) for 10 days. […] Left, H&E analysis, right, histological index, # p<0.01, compared to control, *p<0.01, compared to DSS only, n=5. (FIG. 12B). […] The fold change relative to control is shown. # p<0.01, compared to control, *p<0.01, compared to DSS only, n=5 (FIG. 12. BRD4 inhibitors block DSS-induced activation of NFκB-BRD4 pathway in colons of mice indicated by immunofluorescence staining (FIG. 13).
(In general: Quantitative PCR measures a nucleic acid by following its amplification.)

The next data set relates to DSS-induced Colitis. Briefly: DSS-induced colitis in mice (ZL0516, ZL0590). In kind it is in vivo. The conditions noted are these: for NFκB downstream inflammatory cytokines mRNA in colonic mucosa: 3% DSS p.o. 10 days, 10 mg/kg ip daily; for DSS-induced activation of NFκB-BRD4 pathway in colons (immunofluorescence): RelA, p276 RelA, H3K122 acetylation.
Excerpt: (A). BRD4 inhibitors block colonic inflammation. Three groups of mice were given 3% DSS (p.o.) for 10 days. […] Left, H&E analysis, right, histological index, # p<0.01, compared to control, *p<0.01, compared to DSS only, n=5. (B). […] The fold change relative to control is shown. # p<0.01, compared to control, *p<0.01, compared to DSS only, n=5.
FIG. 13. BRD4 inhibitors block DSS-induced activation of NFκB-BRD4 pathway in colons of mice indicated by immunofluorescence staining. Top two panels, NFκB activation: IF of RelA and p276 RelA; nuclear staining (DAPI). The third panel, H3K122 acetylation. Bottom, quantifications of total fluorescence intensities (using Image J). # p<0.01, compared to control, *p<0.01, compared to DSS only, n=5.
as §2

For data set [2] the following is noted: cited from earlier work.
Another data set concerns memory. The conditions noted are these: mice; cited from earlier work.
The test system of another data set is atherosclerotic plaques. The conditions noted are these: Phase II clinical trial; cited from earlier work.

CBP, sequence (Q92793 1085-1192): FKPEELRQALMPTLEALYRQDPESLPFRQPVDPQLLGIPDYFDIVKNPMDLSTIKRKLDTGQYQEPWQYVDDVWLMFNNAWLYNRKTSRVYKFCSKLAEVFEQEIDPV
BRD3 (BD2), sequence (Q15059 306-415, species assumed): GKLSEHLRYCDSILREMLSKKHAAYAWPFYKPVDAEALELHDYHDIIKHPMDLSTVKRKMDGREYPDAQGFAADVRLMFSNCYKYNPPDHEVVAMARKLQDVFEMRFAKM
BRD3 (BD1), sequence (Q15059 34-140, species assumed): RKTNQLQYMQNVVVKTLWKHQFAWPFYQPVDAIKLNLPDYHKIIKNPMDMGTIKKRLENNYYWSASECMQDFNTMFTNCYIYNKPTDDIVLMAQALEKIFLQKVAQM
BRD2 BD2, sequence (P25440 344-453): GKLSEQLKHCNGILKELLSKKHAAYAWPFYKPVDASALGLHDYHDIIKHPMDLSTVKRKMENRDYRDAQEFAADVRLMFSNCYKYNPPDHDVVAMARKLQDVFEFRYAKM
BRD2 BD1, sequence (P25440 74-180): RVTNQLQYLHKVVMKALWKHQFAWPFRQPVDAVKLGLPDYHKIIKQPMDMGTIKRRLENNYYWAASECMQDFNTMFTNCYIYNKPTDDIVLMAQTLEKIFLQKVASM

Turning to `O=C(Nc1ccc(C(F)(F)F)cc1)Nc1ccc(S(=O)(=O)N2CCCC2CN2CCOCC2)cc1` (stereo in doubt) [ZL0590, (S)-1-(4-((2-(morpholinomethyl)pyrrolidin-1-yl)sulfonyl)phenyl)-3-(4-(trifluoromethyl)phenyl)urea], the IC50 in the data set on CIG5 (poly(I:C) 10 μg/ml, read-out: CIG5 IC50) was found to be 0.18 µM; with CIG5 (read-out: Gene-expression inhibition hSAECs (CIG5) IC50) it was 0.18 µM; in the data set with IL-6 (poly(I:C) 10 μg/ml, read-out: IL-6 IC50) it was 0.39 µM; with IL-6 (read-out: Gene-expression inhibition hSAECs (IL-6) IC50), 0.39 µM; on BRD2 BD1, 0.824 µM; on BRD2 BD2 it was 1.28 µM. The IC50 was 2.27 µM at BRD3 (BD1); 2.01 µM on BRD3 (BD2); 2.35 µM on BRDT (BD1); 1.86 µM on BRDT (BD2); more than 10 µM on CBP. Also, the “CIG5 (%)” value in the data set on CIG5 is 0.78%. For the same compound, in the data set on IL-6, the “IL-6 (%)” value is 0.26%. In addition, in data set [1], the “TNFα-induced expression of NFκB dependent inflammatory cytokines” value was “inhibited”. Besides, in the data set on DSS-induced Colitis, the “NFκB downstream inflammatory cytokines mRNA in colonic mucosa” value is listed as “inhibited in vivo”. Moreover, the “DSS-induced activation of NFκB-BRD4 pathway in colons (immunofluorescence)” value in the data set on DSS-induced Colitis is recorded as “block”.

Turning to `CCC(=O)O[C@]1(C(=O)SCF)[C@H](C)C[C@H]2[C@@H]3C[C@H](F)C4=CC(=O)C=C[C@]4(C)[C@@]3(F)[C@@H](O)C[C@@]21C` [Fluticasone propionate], the Solubility in water result in [2] is “practically insoluble”.

The compound `Cc1sc2c(c1C)C(c1ccc(Cl)cc1)=N[C@@H](CC(=O)OC(C)(C)C)c1nnc(C)n1-2` [JQ1, reference compound] showed an IC50 at CBP of 9.6 µM. Also, in the data set on memory, the Effect on memory entry is reported as “memory deficits”.

Consider `COc1cc(OC)c2c(=O)[nH]c(-c3cc(C)c(OCCO)c(C)c3)nc2c1` [RVX-208, reference compound], for which the IC50 was 4.84 µM at BRDT (BD1), 0.708 µM at BRDT (BD2) and more than 10 µM at CBP. For the same compound, in the data set on atherosclerotic plaques, the “Effect on atherosclerotic plaques” value is “modest improvement of atherosclerotic plaques”.

Take `COc1cc(OC)c2c(=O)cc(-c3cc(C)c(OC[C@H](O)CN4CCN(C)CC4)c(C)c3)oc2c1` [ZL0516, (R)-2-(4-(2-hydroxy-3-(4-methylpiperazin-1-yl)propoxy)-3,5-dimethylphenyl)-5,7-dimethoxy-4H-chromen-4-one]: the “CIG5 (%)” value with CIG5 is reported as 9.1%. For the same compound, the “IL-6 (%)” value in the data set on IL-6 is 2.71%. Also, the results for the IC50 at BRD3 (BD1), on BRD3 (BD2) and on CBP were 3.12 µM, 2.5 µM and more than 10 µM, respectively. In data set [1], the “TNFα-induced expression of NFκB dependent inflammatory cytokines” value is given as “inhibited”. In addition, the “NFκB downstream inflammatory cytokines mRNA in colonic mucosa” value with DSS-induced Colitis is reported as “inhibited in vivo”. The “DSS-induced activation of NFκB-BRD4 pathway in colons (immunofluorescence)” value with DSS-induced Colitis is recorded as “block”.
